Data published in patent US20220110902A1, “Methods of treating amyloid-beta peptide diseases” (Ecole Polytechnique Federale de Lausanne, priority 2016, published 2022).
Entries after “also recorded” stand apart in the source; their conditions may differ.

Key:
GMC101 worms = assay: Western-blot of amyloid aggregation in GMC101 worms; format: in vivo, C. elegans; details: for Aβ aggregation (proteotoxic stress): GMC101, day 1 of adulthood, dox 15 μg/mL, NR 1 mM, AZD 300 nM
Description: C. elegans: Worms were lysed by sonication with RIPA buffer containing protease and phosphatase inhibitors (Roche), and analyzed by SDS-PAGE and western blot. The concentration of extracted protein was determined by using the Bio-Rad Protein Assay. Proteins were detected using the following antibodies: anti-β-actin (Sigma), anti-tubulin (Santa Cruz), atp-5, ucr-1 (Oxphos cocktail, Abcam), anti-β-Amyloid, 1-16 (6E10) (BioLegend). In addition to the housekeeping proteins, loading was monitored by Ponceau Red to ensure a homogeneous loading. Pixel intensity was quantified by using ImageJ software. Each immunoblot experiment was repeated at least twice using 3 biological replicates each containing approximately 1000 worms.
During the assays, animals were exposed to Myriocin (dissolved in DMSO) from the egg stage on plates seeded with live HT115 E. coli bacteria. Control plates seeded with the same bacteria were prepared with the corresponding concentrations of DMSO. The day of the experiment (day 1 of adulthood, 3 days after hatching), the GMC101 population was shifted to 25° C. in order to induce the amyloid deposition in the body wall muscle. ˜1000 worms were used for western blotting assays.
(§1) Worms were lysed by sonication with RIPA buffer containing protease and phosphatase inhibitors (Roche), and analyzed by western blot. The concentration of extracted protein was determined by the Bio-Rad Protein Assay. Proteins were detected using the following antibodies: anti-β-actin (Sigma) and anti-β-Amyloid (BioLegend). In addition to the housekeeping proteins, loading was monitored by Ponceau Red to ensure a homogeneous loading. The immunoblot experiment employed 3 biological replicates, each containing approximately 1000 worms.
as §1, with “extracted proteins” for “extracted protein”, “3 biologicals” for “3 biological”
The GMC101 worms were recovered 24 h after being shifted at 25° C. The population was treated with UA at two different concentrations, ie 20 uM and 50 uM.

CL2122 worms = assay: Mobility of CL2122 control worms; format: in vivo, C. elegans; details: CL2122, day 1 to 4 and day 8 of adulthood; NR 1 mM, AZD 0.3 μM
Description: Doxycycline was obtained from Sigma-Aldrich and dissolved in water. For experiments, a final concentration of 15 μg/mL was used. Olaparib (AZD2281) was dissolved in DMSO to experimental concentrations of 300 nM. Nicotinamide Riboside triflate (NR) was custom synthesized by Novalix (www.novalix-pharma.com/) and dissolved in water, and used at a final concentration of 1 mM. Compounds were added just before pouring the plates. For phenotyping experiments, parental F0 L4 worms were allowed to reach adulthood and lay eggs on the treatment plates. The deriving F1 worms were therefore exposed to compounds during the full life from eggs until death. For RNA analysis experiments, synchronized L1 worms were exposed to the compounds until harvest. To ensure a permanent exposure to the compound, plates were changed twice a week.
Mobility: C. elegans movement analysis was performed as described, starting from day 1 of adulthood, using the Movement Tracker software. The experiments were repeated at least twice.

[1] = tested on: SH-SY5Y neuroblastoma cell line expressing the APP Swedish K670N/M671L double mutation (APPSwe); assay: Immunostaining of intracellular Aβ deposits in APPSwe SH-SY5Y cells; format: cell-based, human
Description: The SH-SY5Y neuroblastoma cell line expressing the APP Swedish K670N/M671L double mutation (APPSwe) was a kind gift of Prof. Cedazo-Minguez (Karolinska Institute, Sweden). Cells were grown in DMEM/F-12, supplemented with 10% fetal bovine serum (FBS, Gibco), GlutaMAX (100×, Gibco) and penicillin/streptomycin (1×, Gibco). Cells were selected in 4 μg/mL Geneticin® Selective Antibiotic (G418 Sulfate, Sigma) and grown for three generations before experiments with cells plated and passaged at 4×10^3 cells/ml and 60% confluence, respectively. Cells were cultured at 37° C. under a 5% CO2 atmosphere and tested for mycoplasma using Mycoprobe (#CUL001B, R&D systems) following the manufacturer's instructions. Cells were treated with 10 μg/mL dox, NR 1 or 3 mM, ISRIB 0.5 μM (Sigma), as indicated for 24 hours before cell harvesting or fixation. For the immunostaining, cells were fixed with 1× Formal-Fixx (Thermo Scientific) for 15 min. After 15 min permeabilization with 0.1% Triton X-100, cells were blocked in PBS supplemented with 5% fetal bovine serum for 1 hour and immunostained overnight, at 4° C., with the anti-β-Amyloid 1-42 (1:100, Millipore AB5078P). The secondary antibody was coupled to the Alexa-488 fluorochrome (Thermo Scientific), and nuclei were stained with DAPI (Invitrogen, D1306). After washing in PBS, cell slides were mounted with Dako mounting medium (Dako, S3023) and examined with a Zeiss LSM 700 confocal microscope (Carl Zeiss MicroImaging) equipped with a Plan-Apochromat 40×/1.3 NA oil immersion objective lens using a 488 nm laser. Laser power was set at the lowest intensity allowing clear visualization of the signal. Imaging settings were maintained with the same parameters for comparison between different experimental conditions.
The SH-SY5Y neuroblastoma cell line expresses the APP Swedish K670N/M671L double mutation (APPSwe) (Zheng et al., 2011) and accumulates intracellular Aβ amyloid aggregates. Cells were grown in DMEM/F-12, supplemented with 10% fetal bovine serum (FBS, Gibco), GlutaMAX (100×, Gibco) and penicillin/streptomycin (1×, Gibco). Cells were selected in 4 μg/mL Geneticin® Selective Antibiotic (G418 Sulfate, Sigma) and grown for three generations before experiments with cells plated and passaged at 4×10{right arrow over ( )}3 cells/ml and 60% confluence, respectively. Cells were cultured at 37° C. under a 5% CO2 atmosphere and tested for mycoplasma using Mycoprobe (#CUL001B, R&D systems), following the manufacturer's instructions. Myriocin was dissolved in DMSO.
Cells were treated with 10 uM Myriocin and Fumonisin B1 for 24 hours before harvesting or fixation (FIG. 3A). For immunostaining, cells were fixed with 1× Formal-Fixx (Thermo Scientific) for 15 min. […]

O=C(c1cc(Cc2n[nH]c(=O)c3ccccc23)ccc1F)N1CCN(C(=O)C2CC2)CC1 [AZD, Olaparib, reference compound]
Aβ aggregation (proteotoxic stress) (GMC101 worms): reduced proteotoxic stress
fitness (mobility) of control strain (CL2122 worms): only improved CL2122 fitness during aging

NC(=O)c1ccc[n+]([C@@H]2O[C@H](CO)[C@@H](O)[C@H]2O)c1 [NR, Nicotinamide Riboside triflate]
Aβ aggregation (proteotoxic stress) (GMC101 worms): reduced proteotoxic stress
fitness (mobility) of control strain (CL2122 worms): only improved CL2122 fitness during aging
intracellular Aβ deposits (anti-β-Amyloid 1-42 immunodetection) ([1]; 24 h, dox 10 μg/mL, NR 3 mM): remarkable reduction

CCCCCCC(=O)CCCCCC/C=C/C[C@@H](O)[C@H](O)[C@@](N)(CO)C(=O)O [Myriocin, (E,2S,3R,4R)-2-amino-3,4-dihydroxy-2-(hydroxymethyl)-14-oxoicos-6-enoic acid]
accumulation of amyloid-β aggregates (GMC101 worms; GMC101, Day 1 of adulthood, Myriocin 5 uM and 10 uM): dose-dependently decreased; also recorded: dose-dependent reduction
intracellular Aβ deposits ([1]; 10 uM, 24 hours): significantly reduced; also recorded: markedly reduced
